We go through 2 compounds from article PMC12504763, “Antiproliferation, 3D-multicellular spheroid and VEGFR-2 inhibitory properties of spiroindolin-2-ones with phosphonate function” (Scientific Reports, 2025).

Common to all, as to type: cell-based, human
The subject of assay [1] is TNF-α. In words: TNF-α inhibitory properties (ELISA), PaCa2 cell lysate. Conditions: at 10 μM; for TNF-α pg/mL (± SEM) PaCa2: control 111.8 ± 2.0.
Assay [2] has as its system TNF-α. In words: TNF-α inhibitory properties (ELISA), HCT116 cell lysate. To be noted: at 10 μM; for TNF-α pg/mL (± SEM) HCT116: control 95.74 ± 0.5.
In assay [3] the test system is TNF-α. The assay can be described thus: TNF-α inhibitory properties (ELISA), MCF7 cell lysate. Conditions: at 10 μM; for TNF-α pg/mL (± SEM) MCF7: control 83.26 ± 1.1.

Consider `CC(C)Cc1ccc(C(C)C(=O)O)cc1` (stereo not drawn) [Ibuprofen, reference compound], for which, in assay [1], the “TNF-α % inhibition PaCa2” value is reported as 42.0% and the “TNF-α pg/mL (± SEM) PaCa2” value stood at 64.8 ± 0.6 pg/mL. Also, in assay [2], the “TNF-α % inhibition HCT116” value amounted to 22.2% and the “TNF-α pg/mL (± SEM) HCT116” value is 74.5 ± 1.1 pg/mL. In addition, in assay [3], the “TNF-α % inhibition MCF7” value is listed as 7.8% and the “TNF-α pg/mL (± SEM) MCF7” value is reported as 76.8 ± 2.0 pg/mL.
As for `COc1ccc2c(c1)c(CC(=O)O)c(C)n2C(=O)c1ccc(Cl)cc1` [Indomethacin, reference compound], in assay [1], the “TNF-α % inhibition PaCa2” value came out at 32.6% and the “TNF-α pg/mL (± SEM) PaCa2” value turned out to be 75.3 ± 2.1 pg/mL. For the same compound, in assay [2], the “TNF-α % inhibition HCT116” value is reported as 42.8% and the “TNF-α pg/mL (± SEM) HCT116” value was 54.8 ± 0.7 pg/mL. Further, in assay [3], the “TNF-α % inhibition MCF7” value was determined as 22.9% and the “TNF-α pg/mL (± SEM) MCF7” value is 64.2 ± 1.6 pg/mL.
